As usually defined, the GI50 is the concentration that inhibits growth by half. A high value points to lower sensitivity of the cells.

In ChEMBL document CHEMBL3108687, “Isolation and structures of pipecolidepsins A and B, cytotoxic cyclic depsipeptides from the Madagascan sponge Homophymia lamellosa” (2014) one finds GI50 data, which are given here for 2 compounds.

Assay type in all cases: functional
For one test, the system named is HT-29. Briefly: Growth inhibition of human HT-29 cells after 72 hrs by sulforhodamine B assay. As to conditions: HT-29, 72 h. Background: Sulforhodamine B stains cellular protein and so reports cell mass.
In a further test the test system is A549. Briefly: Growth inhibition of human A549 cells after 72 hrs by sulforhodamine B assay. As to conditions: A549, 72 h.
The next test concerns MDA-MB-231. Briefly: Growth inhibition of human MDA-MB-231 cells after 72 hrs by sulforhodamine B assay. As to conditions: MDA-MB-231, 72 h.

For `CCO[C@H](C(N)=O)[C@@H]1NC(=O)[C@H](CCC(N)=O)N(C)C(=O)[C@H](CC(C)C)NC(=O)[C@@H](CCCCN)NC(=O)[C@@H]([C@@H](C)O)NC(=O)[C@H](NC(=O)[C@@H](NC(=O)[C@H](O)[C@H](O)[C@H](CCC(N)=O)NC(=O)[C@@H](CC(=O)O)NC(=O)[C@H](C)[C@H](O)[C@H](C)CC(C)C)[C@@H](C)[C@@H](C)C(N)=O)[C@@H]([C@H](C)C(C)C)OC(=O)[C@@H]2CCCCN2C(=O)[C@@H](CC(=O)O)NC1=O`, the GI50 in the test with HT-29 was 1120 nM; in the test on A549, 600 nM; in the test on MDA-MB-231, 700 nM.
As for `CCO[C@H](C(N)=O)[C@@H]1NC(=O)[C@H](CCC(N)=O)N(C)C(=O)[C@H](CC(C)C)NC(=O)[C@@H](CCCCN)NC(=O)[C@@H]([C@@H](C)O)NC(=O)[C@H](NC(=O)[C@@H](NC(=O)[C@H](O)[C@H](O)[C@H](CCC(N)=O)NC(=O)[C@H](NC(=O)[C@H](C)[C@H](O)[C@H](C)CC(C)C)[C@H](O)C(=O)O)[C@@H](C)[C@@H](C)C(N)=O)[C@@H]([C@H](C)C(C)C)OC(=O)[C@@H]2CCCCN2C(=O)[C@@H](CC(=O)O)NC1=O`, the results for the GI50 with HT-29, in the test on A549 and in the test on MDA-MB-231 were 10 nM, 40 nM and 20 nM, respectively.
